Experimental data reported in US7521239B2, “Photochemical internalization for virus-mediated molecule delivery into the cyosol” (priority 2000, dated 2009).

What was measured:
[1] = system: HCT 116 adenocarcinoma cells; assay: MTT cell survival after PCI-induced transduction with AdV-TK and ganciclovir; format: cell-based, human
Method: HCT 116 adenocarcinoma cells were infected with an adenovirus gene therapy vector encoding the HSV-tk gene (AdV-TK) and subjected to PCI-treatment. Conditions for infection were as described under “Experimental protocols” (MOI=5). 2 days after infection, different concentrations of ganciclovir (GCV) was added, and the cells were incubated further for 3 days before analysis of cell survival by the MTT method. This method is based on reduction of a water-soluble tetrazolium salt (MTT) to a purple, insoluble formazan product by mitochondrial dehydrogenases present in living, metabolically active cells. One ml medium containing […] is added to the cells, followed by 4 h incubation (37° C., 5% v/v CO2). The resulting formazan crystals are dissolved by adding 200 μl isopropanol (Sigma, Mo., USA) per well. The solution is transferred to a 96 wells plate which is read by a Multiskan EX microplate reader (Labsystems, Finland) with a 570 nm bandpass filter.

HCT 116 cells = assay: Flow cytometry of β-galactosidase transduction in HCT 116 cells (AlPcS2a, red light); format: cell-based, human
Method: (§1) HCT 116 and WiDr human colon carcinoma cells were obtained from American Type Culture Collection (ATCC nos. CCL-247 and CCL-218, respectively). Cells were cultured in RPMI 1640 medium containing 10% fetal calf serum, 100 U/ml penicillin, […] and 2 mM glutamine (all Gibco BRL, Paisley, UK) at 37° C. in 5% CO2 atmosphere.
(§2) The recombinant adenovirus AdHCMV-lacZ encoding the E. coli lacZ gene controlled by the human cytomegalovirus promoter was obtained by homologous recombination using the pJM17 system in 293 cells (Addison et al., 1997, J. Gen. Virol. 78: 1653-61). Recombinant vectors were plaque purified, grown to high titer in 293 cells and purified by CsCl banding (Hitt et al., 1995, Methods Mol. Genet. 7:13-30). The virus-solution was diluted in PBS containing 0.68 mM CaCl2 and 0.5 mM MgCl2 to the MOIs employed in the different experiments. […]
(§3) The cells were trypsinised, centrifuged, resuspended in 25 ml medium and incubated for 5 min at 37° C. […] The samples were kept on ice for 30-60 min, filtered through a […] mesh nylon filter and analyzed in a FACS-Calibur flow cytometer (Becton Dickinson). […] Fluorescein-fluorescence was measured through a 510-530 nm filter after excitation with an argon laser (15 mW, 488 nm). […] The data were analyzed with the CELLQuest Software (Becton Dickinson).

[2] = system: human WiDr adenocarcinoma cells; assay: X-gal staining of photochemically transduced WiDr cells; format: cell-based; conditions: AlPcS2a and light, no adenovirus
Method: 50 000 cells per well were seeded in 6-well plates (Costar,) and incubated overnight at 37° C. 1 ml medium containing […] AlPcS2a (Phorphyrin Products, Logan, Utah) was added, the cells were incubated for 18 h at 37° C., washed three times with medium and incubated for another 3 h at 37° C. The medium was removed and 200 μl of AdHCMV-lacZ was added. After incubation for 30 min at 37° C., 2 ml medium was added and the cells were incubated for 30 min before exposure to red light (Phillips TL 20 W/09, filtered through a Cinemoid 35 filter, with a light intensity reaching the cells of 13.5 W/m2). Before analysis of β-galactosidase activity the cells were incubated at 37° C. for two days.
For X-gal (5-bromo-4 chloro 3 indolyl-β-D-galactopyranoside) staining the medium was discarded, 1 ml of fixative solution (0,05% glutaraldehyde in PBS) was added and the cells were incubated at room temperature for 15 min. The fixative solution was discarded and the cells were washed three times in PBS at room temperature (second rinse was for 10 min, first and third rinses were performed quickly). 1 ml X-gal solution (5 mM K3Fe(CN)6, 5 mM K4Fe(CN)6, 1 mM MgCl2, 1 mg/ml X-gal) was added and the cells were incubated for 4 h to overnight at 37° C. and observed by microscopy (100× magnification) using an Axiovert S100 microscope (Zeiss) with an MC100 Spot camera (Zeiss).

WiDr cells = assay: Flow cytometry of β-galactosidase transduction in WiDr cells (AlPcS2a, red light); format: cell-based, human; conditions: photochemical treatment alone (Ad−, S+)
Method: as §1, §2, §3

Molecule: Nc1nc(O)c2ncn(COC(CO)CO)c2n1 [GCV, ganciclovir]
- GCV-mediated cell killing (cell survival, MTT) ([1]; control: photosensitizer + GCV, no AdV-TK): no such effect

Molecule: aluminum phthalocyanine with 2 sulfonate groups on adjacent rings [AlPcS2a]
- percentage of β-galactosidase positive cells (HCT 116 cells; Ad−, S+, 8 min light): 0.4%
- mean fluorescence in non-infected cells (HCT 116 cells; photochemical treatment (AlPcS2a + light), no adenovirus): 12 RFU
- β-galactosidase expressing cells (X-gal staining, microscopy) [2]: No positive cells
- change in percentage of positive cells (WiDr cells): did not significantly change
- GCV-mediated cell killing (cell survival, MTT) ([1]; control: only photosensitizer treatment): no such effect
